{
  "source": "paper PMC3171563",
  "about": "(2011)",
  "key": {"[1]": {"biological_target": "T1, histone deacetylase 8 (HDAC8) (Homo sapiens, UniProt Q9BY41)", "T1 sequence (Q9BY41 1-377)": "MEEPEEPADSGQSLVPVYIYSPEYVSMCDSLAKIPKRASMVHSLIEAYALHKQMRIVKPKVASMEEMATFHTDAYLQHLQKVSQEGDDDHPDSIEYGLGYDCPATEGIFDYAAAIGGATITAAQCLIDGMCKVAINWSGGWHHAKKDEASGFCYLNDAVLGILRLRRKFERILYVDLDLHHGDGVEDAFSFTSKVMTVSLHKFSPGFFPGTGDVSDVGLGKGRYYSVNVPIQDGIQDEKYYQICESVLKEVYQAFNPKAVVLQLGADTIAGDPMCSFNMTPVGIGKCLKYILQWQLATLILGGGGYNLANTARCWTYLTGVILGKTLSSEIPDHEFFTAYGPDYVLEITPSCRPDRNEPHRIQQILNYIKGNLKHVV", "test": "Fluor-de-Lys fluorescence deacetylase assay", "format": "biochemical"}, "[2]": {"biological_target": "acetylpolyamine amidohydrolase (APAH) (Mycoplana ramosa, UniProt Q48935)", "sequence (Q48935 whole entry)": "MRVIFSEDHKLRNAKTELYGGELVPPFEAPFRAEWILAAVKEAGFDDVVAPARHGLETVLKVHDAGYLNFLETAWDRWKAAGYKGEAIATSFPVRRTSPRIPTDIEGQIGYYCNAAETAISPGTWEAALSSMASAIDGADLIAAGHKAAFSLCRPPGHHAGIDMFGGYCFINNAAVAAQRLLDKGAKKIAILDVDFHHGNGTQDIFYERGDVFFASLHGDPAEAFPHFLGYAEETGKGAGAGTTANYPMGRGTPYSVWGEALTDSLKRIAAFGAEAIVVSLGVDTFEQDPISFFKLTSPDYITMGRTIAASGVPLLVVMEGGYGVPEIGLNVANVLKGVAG", "test": "Fluor-de-Lys fluorescence deacetylase assay", "format": "biochemical"}},
  "data": [
    {"smiles": "N[C@@H](CCCCC(=O)C(F)(F)F)C(=O)O", "note": "[compound 10, (S)-2-amino-8,8,8-trifluoro-7-oxo-octanoic acid]", "values": [
      {"measurement": "IC50", "setting": "[1]", "value": "1.5 ± 0.2", "unit": "µM"},
      {"measurement": "IC50", "setting": "[2]", "value": "110 ± 30", "unit": "µM"}
    ]}
  ]
}
